This test addresses BRD4 (Homo sapiens, UniProt O60885). The experiment in a line: Time Resolved Fluorescence Resonance Energy Transfer (TR-FRET) binding assay. The conditions noted are these: one of the FRET assays described (BRD4 construct not given). On the technique in general: TR-FRET usually uses a lanthanide donor and a delayed reading to cut background.

The structures appear in SMILES notation.

Broadly, the IC50 is the point on the concentration scale where inhibition reaches its midpoint. A higher IC50 goes with weaker potency.

On to `Cc1noc(C)c1-c1cc(C(N)=O)c2[nH]c3cc(C(=O)N4CCCCC4)ccc3c2c1` [Example 1, 3-(3,5-dimethyl-4-isoxazolyl)-7-(1-piperidinylcarbonyl)-9H-carbazole-1-carboxamide], for which the IC50 is below 500 nM.

With `Cc1noc(C)c1-c1cc(C(N)=O)c2c(c1)c1ccc(C(=O)N3C[C@@H](C)O[C@@H](C)C3)cc1n2CC1CC1` [Example 2, 9-(cyclopropylmethyl)-3-(3,5-dimethyl-4-isoxazolyl)-7-((cis-2,6-dimethyl-4-morpholinyl)carbonyl)-9H-carbazole-1-carboxamide], the IC50 is below 50 nM.

`Cc1noc(C)c1-c1cc(C(N)=O)c2[nH]c3cc(C(=O)N4CCOCC4)ccc3c2c1` [Example 3, 3-(3,5-dimethyl-4-isoxazolyl)-7-(4-morpholinylcarbonyl)-9H-carbazole-1-carboxamide] showed an IC50 below 500 nM.

`Cc1noc(C)c1-c1cc(C(N)=O)c2c(c1)c1ccc(C(=O)N3CCOCC3)cc1n2CC1CC1` [Example 4, 9-(cyclopropylmethyl)-3-(3,5-dimethyl-4-isoxazolyl)-7-(4-morpholinylcarbonyl)-9H-carbazole-1-carboxamide] gave an IC50 below 50 nM.

In turn, `Cc1noc(C)c1-c1cc(C(N)=O)c2c(c1)c1ccc(C(=O)N3CCOCC3)cc1n2S(C)(=O)=O` [Example 5, 3-(3,5-dimethyl-4-isoxazolyl)-9-(methylsulfonyl)-7-(4-morpholinylcarbonyl)-9H-carbazole-1-carboxamide] registered a concentration for half-maximal inhibition (IC50) below 50 nM.

Regarding `Cc1noc(C)c1-c1cc(C(N)=O)c2c(c1)c1ccc(C(=O)N3CCC(C#N)CC3)cc1n2S(C)(=O)=O` [Example 6, 7-((4-cyano-1-piperidinyl)carbonyl)-3-(3,5-dimethyl-4-isoxazolyl)-9-(methylsulfonyl)-9H-carbazole-1-carboxamide], the concentration for half-maximal inhibition (IC50) was below 50 nM.

`Cc1noc(C)c1-c1cc(C(N)=O)c2c(c1)c1ccc(C(=O)N3CC(F)C3)cc1n2S(C)(=O)=O` [Example 7, 3-(3,5-dimethyl-4-isoxazolyl)-7-((3-fluoro-1-azetidinyl)carbonyl)-9-(methylsulfonyl)-9H-carbazole-1-carboxamide]: the IC50 was below 50 nM.

Take `Cc1noc(C)c1-c1cc(C(N)=O)c2c(c1)c1ccc(C(=O)N3CCC(F)CC3)cc1n2S(C)(=O)=O` [Example 8, 3-(3,5-dimethyl-4-isoxazolyl)-7-((4-fluoro-1-piperidinyl)carbonyl)-9-(methylsulfonyl)-9H-carbazole-1-carboxamide]: the IC50 is below 500 nM.

The compound `Cc1noc(C)c1-c1cc(C(N)=O)c2c(c1)c1ccc(C(=O)N3CCC(F)(F)CC3)cc1n2S(C)(=O)=O` [Example 9, 7-((4,4-difluoro-1-piperidinyl)carbonyl)-3-(3,5-dimethyl-4-isoxazolyl)-9-(methylsulfonyl)-9H-carbazole-1-carboxamide] returned an IC50 below 50 nM.

As to `Cc1noc(C)c1-c1cc(C(N)=O)c2c(c1)c1ccc(C(=O)N3CCCC(N(C)C)C3)cc1n2S(C)(=O)=O` (stereo not shown) [Example 10, 7-((3-(dimethylamino)-1-piperidinyl)carbonyl)-3-(3,5-dimethyl-4-isoxazolyl)-9-(methylsulfonyl)-9H-carbazole-1-carboxamide], the IC50 was below 50 nM.

Turning to `Cc1noc(C)c1-c1cc(C(N)=O)c2c(c1)c1ccc(C(=O)N3CC(F)(F)C3)cc1n2S(C)(=O)=O` [Example 11, 7-((3,3-difluoro-1-azetidinyl)carbonyl)-3-(3,5-dimethyl-4-isoxazolyl)-9-(methylsulfonyl)-9H-carbazole-1-carboxamide], the IC50 is below 50 nM.

As to `Cc1noc(C)c1-c1cc(C(N)=O)c2c(c1)c1ccc(C(=O)N(C)C)cc1n2S(C)(=O)=O` [Example 12, 3-(3,5-dimethyl-4-isoxazolyl)-N7,N7-dimethyl-9-(methylsulfonyl)-9H-carbazole-1,7-dicarboxamide], the IC50 is below 50 nM.

For `Cc1noc(C)c1-c1cc(C(N)=O)c2c(c1)c1ccc(C(=O)N3CCCC(F)C3)cc1n2S(C)(=O)=O` (stereo not shown) [Example 13, 3-(3,5-dimethyl-4-isoxazolyl)-7-((3-fluoro-1-piperidinyl)carbonyl)-9-(methylsulfonyl)-9H-carbazole-1-carboxamide], the IC50 is below 50 nM.

In turn, `COC1CN(C(=O)c2ccc3c4cc(-c5c(C)noc5C)cc(C(N)=O)c4n(S(C)(=O)=O)c3c2)C1` [Example 14, 3-(3,5-dimethyl-4-isoxazolyl)-7-((3-methoxy-1-azetidinyl)carbonyl)-9-(methylsulfonyl)-9H-carbazole-1-carboxamide] displayed an IC50 below 50 nM.

Regarding `Cc1noc(C)c1-c1cc(C(N)=O)c2c(c1)c1ccc(C(=O)N3CCS(=O)(=O)CC3)cc1n2S(C)(=O)=O` [Example 15, 3-(3,5-dimethyl-4-isoxazolyl)-7-((1,1-dioxido-4-thiomorpholinyl)carbonyl)-9-(methylsulfonyl)-9H-carbazole-1-carboxamide], the IC50 was below 5000 nM.

Consider `Cc1noc(C)c1-c1cc(C(N)=O)c2c(c1)c1ccc(C(=O)N3C(C)(C)CC(O)CC3(C)C)cc1n2S(C)(=O)=O` [Example 16, 3-(3,5-dimethyl-4-isoxazolyl)-7-((4-hydroxy-2,2,6,6-tetramethyl-1-piperidinyl)carbonyl)-9-(methylsulfonyl)-9H-carbazole-1-carboxamide], for which the IC50 is below 50 nM.

`Cc1noc(C)c1-c1cc(C(N)=O)c2c(c1)c1ccc(C(=O)N3CCCOCC3)cc1n2S(C)(=O)=O` [Example 17, 3-(3,5-dimethyl-4-isoxazolyl)-9-(methylsulfonyl)-7-(1,4-oxazepan-4-ylcarbonyl)-9H-carbazole-1-carboxamide] showed an IC50 below 50 nM.

On to `Cc1noc(C)c1-c1cc(C(N)=O)c2c(c1)c1ccc(C(=O)N3CCC(N(C)C)C3)cc1n2S(C)(=O)=O` (stereo not shown) [Example 18, 7-((3-(dimethylamino)-1-pyrrolidinyl)carbonyl)-3-(3,5-dimethyl-4-isoxazolyl)-9-(methylsulfonyl)-9H-carbazole-1-carboxamide], for which the half-maximal inhibitory concentration (IC50) is below 50 nM.

In turn, `Cc1noc(C)c1-c1cc(C(N)=O)c2c(c1)c1ccc(C(=O)N3CNC(=O)C3)cc1n2S(C)(=O)=O` [Example 19, 3-(3,5-dimethyl-4-isoxazolyl)-9-(methylsulfonyl)-7-((4-oxo-1-imidazolidinyl)carbonyl)-9H-carbazole-1-carboxamide] registered an IC50 below 500 nM.

`Cc1noc(C)c1-c1cc(C(N)=O)c2c(c1)c1ccc(C(=O)N3CCC(C#N)CC3)cc1n2S(=O)(=O)C1CC1` [Example 20, 7-((4-cyano-1-piperidinyl)carbonyl)-9-(cyclopropylsulfonyl)-3-(3,5-dimethyl-4-isoxazolyl)-9H-carbazole-1-carboxamide] displayed an IC50 below 50 nM.

In turn, `Cc1noc(C)c1-c1cc(C(N)=O)c2c(c1)c1ccc(C(=O)N3CC(F)C3)cc1n2S(=O)(=O)C1CC1` [Example 21, 9-(cyclopropylsulfonyl)-3-(3,5-dimethyl-4-isoxazolyl)-7-((3-fluoro-1-azetidinyl)carbonyl)-9H-carbazole-1-carboxamide] came in with a concentration for half-maximal inhibition (IC50) below 50 nM.

Consider `Cc1noc(C)c1-c1cc(C(N)=O)c2c(c1)c1ccc(C(=O)N3CCCC(F)C3)cc1n2S(=O)(=O)C1CC1` (stereo not shown) [Example 23, 9-(cyclopropylsulfonyl)-3-(3,5-dimethyl-4-isoxazolyl)-7-((3-fluoro-1-piperidinyl)carbonyl)-9H-carbazole-1-carboxamide], for which the IC50 was below 50 nM.

Regarding `Cc1noc(C)c1-c1cc(C(N)=O)c2c(c1)c1ccc(C(=O)N3CC(F)(F)C3)cc1n2S(=O)(=O)C1CC1` [Example 24, 9-(cyclopropylsulfonyl)-7-((3,3-difluoro-1-azetidinyl)carbonyl)-3-(3,5-dimethyl-4-isoxazolyl)-9H-carbazole-1-carboxamide], the IC50 is below 50 nM.

`Cc1noc(C)c1-c1cc(C(N)=O)c2c(c1)c1ccc(C(=O)N3CCCOCC3)cc1n2S(=O)(=O)C1CC1` [Example 25, 9-(cyclopropylsulfonyl)-3-(3,5-dimethyl-4-isoxazolyl)-7-(1,4-oxazepan-4-ylcarbonyl)-9H-carbazole-1-carboxamide] had an IC50 below 50 nM.

As to `Cc1noc(C)c1-c1cc(C(N)=O)c2c(c1)c1ccc(C(=O)N3CCC(F)(F)CC3)cc1n2S(=O)(=O)C1CC1` [Example 26, 9-(cyclopropylsulfonyl)-7-((4,4-difluoro-1-piperidinyl)carbonyl)-3-(3,5-dimethyl-4-isoxazolyl)-9H-carbazole-1-carboxamide], the IC50 was below 50 nM.

As for `Cc1noc(C)c1-c1cc(C(N)=O)c2c(c1)c1ccc(NC(=O)OC(C)(C)C)cc1n2CC1CC1` [Example 27, tert-butyl(8-carbamoyl-9-(cyclopropylmethyl)-6-(3,5-dimethyl-4-isoxazolyl)-9H-carbazol-2-yl)carbamate], the IC50 was below 500 nM.

In turn, `Cc1noc(C)c1-c1cc(C(N)=O)c2c(c1)c1ccc(N)cc1n2CC1CC1` [Example 28, 7-amino-9-(cyclopropylmethyl)-3-(3,5-dimethyl-4-isoxazolyl)-9H-carbazole-1-carboxamide] yielded an IC50 below 500 nM.

`CC(=O)Nc1ccc2c3cc(-c4c(C)noc4C)cc(C(N)=O)c3n(CC3CC3)c2c1` [Example 29, 7-acetamido-9-(cyclopropylmethyl)-3-(3,5-dimethyl-4-isoxazolyl)-9H-carbazole-1-carboxamide] had an IC50 below 500 nM.

Compound `Cc1noc(C)c1-c1cc(C(N)=O)c2c(c1)c1ccc(N(c3nccs3)c3nccs3)cc1n2CC1CC1` [Example 30, 9-(cyclopropylmethyl)-3-(3,5-dimethyl-4-isoxazolyl)-7-(di-1,3-thiazol-2-ylamino)-9H-carbazole-1-carboxamide] registered an IC50 below 500 nM.

Take `CCNC(=O)Nc1ccc2c3cc(-c4c(C)noc4C)cc(C(N)=O)c3n(CC3CC3)c2c1` [Example 31, 9-(cyclopropylmethyl)-3-(3,5-dimethyl-4-isoxazolyl)-7-((ethylcarbamoyl)amino)-9H-carbazole-1-carboxamide]: the IC50 is below 500 nM.

Turning to `CCOC(=O)Nc1ccc2c3cc(-c4c(C)noc4C)cc(C(N)=O)c3n(CC3CC3)c2c1` [Example 32, Ethyl(8-carbamoyl-9-(cyclopropylmethyl)-6-(3,5-dimethyl-4-isoxazolyl)-9H-carbazol-2-yl)carbamate], the IC50 was below 5000 nM.

The values above are taken from patent US10053454B2 (Bristol-Myers Squibb Company, priority 2013, dated 2018).
